This note sets out measurements from patent publication US20060084697A1, “Pi3k antagonists as radiosensitizers” (priority 2002, published 2006).

Series [1] has as its system HUVEC cells. Kind of series: Apoptotic nuclei in HUVEC, H&E staining. The format is cell-based, human. The conditions noted are these: wortmannin 4 nM or LY294002 2 μM, 24 hours. Here is the method: To determine whether PI3K antagonists enhance the activities of intrinsic cell death mechanisms induced by irradiation, apoptosis in HUVEC cells was studied following PI3K inhibition. HUVEC cells were treated with wortmannin (4 nM) or with LY294002 (2 μM) as described in Example 2. Cells were treated 30 minutes later with 3 Gy of ionizing radiation. Cultures were stained 24 hours later with hematoxylin and eosin (H&E) to reveal apoptotic nuclei. Stained cells were then examined by light microscopy. For each treatment group, four high power fields (40× objective) were examined, and both the number of cells with apoptotic nuclei and the total number of cells were determined. From these numbers, the percentage of apoptotic cells for each group was calculated.

Series [2] relates to HUVEC cells. Kind of series: Clonogenic survival analysis of HUVEC. The format is cell-based, human.
Method: The ability of PI3K antagonist to suppress the clonogenic potential of HUVEC cells treated with radiation was assayed by clonogenic survival analysis. The ability of HUVEC cells treated with LY294002 30 minutes prior to irradiation to form colonies was compared to that of HUVEC cells treated with either radiation or LY294002 alone, and also to that of untreated HUVEC cells. […] Briefly, groups of three HUVEC culture plates were treated at each of four radiation dose levels: 2, 4, 6, and 8 Gy, either with or without prior treatment with PI3K antagonists as described in Example 2. After treatment with radiation and/or antagonists, cells were trypsinized, counted by hemocytometer, and subcultured into fresh medium. After 14 days, the cells were fixed with cold methanol and stained with 1% methylene blue. Colonies with greater than 50 cells were counted and the surviving fraction was determined.
To determine whether broad spectrum RTK inhibition enhances the cytotoxic effects of radiation on vascular endothelium, SU11248 was added 30 minutes prior to irradiation. HUVECs were treated with vehicle control, and either 100 nM SU11248 orvehicle combined with 6 Gy.
Series [3] deals with GL261 tumor blood vessels. Kind of series: Tumor vascular window model, vascular length density, GL261. The format is in vivo, mouse. How it is done:
Penicillin/streptomycin solution (200 μl; available from GIBCO™ Invitrogen Corporation of Carlsbad, Calif., United States of America) was injected into the hind limb of the mouse prior to preparation of the window chamber. The dorsal skin fold window chamber (Leunig et al., 1992) was prepared using a 3-gram plastic frame, which was applied to the skin of a test animal and remained attached for the duration of the study. To prepare a test animal for application of the plastic frame, the dorsal midline was found along the animal's back, and a clip was placed to hold the skin in position. […] Scanned slides were analyzed using IMAGE-PRO® software (Media Cybernetics, Silver Spring, Md., United States of America) as described below. […] Tumor blood vessels were quantified using IMAGE-PRO® software, which quantified the vascular length density of blood vessel within the microscopic field. The mean vascular length density and the standard error of the mean were calculated for each treatment group. The mean and 95% confidence intervals of vascular length density for each treatment group were calculated and variance was analyzed by the General Linear Models and Bonferroni t test. […] The mean vascular length densities of treatment group were determined at 0 hours, which was the time at which the radiation treatments were commenced. […]

Series [4] concerns GL261 glioma tumors. Nature of the series: Power Doppler sonography of tumor blood flow, GL261 hind limb tumors. The format is in vivo, C57BL/6J mice. An excerpt:
Power Doppler sonography was used to study the response of tumor blood vessels to ionizing radiation. This method utilizes amplitude to measure blood flow in microvasculature. Tumors were imaged with a 10-5 MHz ENTOS® linear probe (Advanced Technology Laboratories, Inc., Bothell, Wash., United States of America) attached to an HDI® 5000 diagnostic ultrasound system (Advanced Technology Laboratories, Inc.). Power Doppler sonography images were obtained with the power gain set to 82%. Care was taken to minimize motion artifact. A 20-frame cineloop sweep of the entire tumor was obtained with the probe perpendicular to the long axis of the lower extremity along the entire length of the tumor. The images were analyzed using HDI® software (Advanced Technology Laboratories, Inc). This software allows direct evaluation of Power Doppler cineloop raw data. Color area was recorded for the entire tumor. Five mice were included in each treatment group. Values for color area were averaged for each tumor set and treated groups were compared to controls using the unpaired student t-test. GL261 glioma tumors were implanted in the hind limb of C57BL/6J mice as described in […] et al., 1998. […] Power Doppler analysis of tumor blood flow was measured on day 0, day 3, and day 7 after radiation treatment. […]

Series [5] deals with GL261 tumors. Kind of series: Tumor volume assessment, growth delay, GL261. The class given is in vivo, C57BL/6 mice. Here is the method: GL261 tumors were generated by subcutaneous injection of 10^6 cells into the right thighs of C57BL/6 mice as described in Example 6. […] An equal number of large and intermediate size tumors were present in each group. GL261 tumor-bearing mice were treated with 24 Gy ionizing radiation administered in 8 fractionated doses over 10 days. LY294002 was administered at 3 mg/kg by intraperitoneal injection 15 minutes prior to irradiation on days 1, 3, 5, and 7 of radiation therapy. Control mice received identical doses and schedules of either LY294002 alone or radiation alone. Twice each week, tumor volumes were measured using skin calipers as previously described (Grugel et al., 1995; […] et al., 1998; Staba et al., 1998). Briefly, tumor volumes were calculated using the formula: a×b×c/2, where a=maximal width dimension, b=maximal length dimension, and c=maximal depth dimension, which was derived from the formula for calculating the volume of an ellipsoid (πd^3/6). Data were calculated as the percent of original (day 0) tumor volume and graphed as fractional tumor volume plus or minus one standard deviation for each treatment group. Growth delay was defined as the number of days required for tumors to reach a volume of 1 cm^3. Untreated control tumors reached 1 cm^3 at 7 days.

Turning to `O=c1cc(N2CCOCC2)oc2c(-c3ccccc3)cccc12` [LY294002, 2-(4-Morpholinyl)-8-phenyl-4H-1-benzopyran-4-one], the “apoptotic nuclei, % of cells” value in series [1] (HUVEC pretreated 30 minutes before 3 Gy) amounted to 16%. The apoptotic cells in series [1] (unirradiated HUVEC) came out at 2%. In series [2] (HUVEC treated 30 minutes prior to 2, 4, 6, 8 Gy, p<0.05), the “radiation-induced cytotoxicity compared to radiation alone” value is on record as “significantly enhanced”. Further, the “plating efficiency, % of untreated control cells” value in series [2] (unirradiated HUVEC treated for 30 minutes) came out at 70%. Besides, the “mean vascular length density at 96 hours, % of 0 hour” value in series [3] (3 mg/Kg intraperitoneally 15 minutes prior to 3 Gy) is on record as 5%; in series [3] (3 mg/Kg intraperitoneally, no radiation, p=0.41), 85%. Moreover, the tumor blood flow result in series [4] (LY294002 alone) was “unchanged”; in series [4] (LY294002 prior to 3 Gy irradiation), “obliterated”. The “growth delay: days for tumors to reach 1 cm^3” value in series [5] (3 mg/kg i.p. 15 minutes prior to irradiation on days 1, 3, 5, 7, 24 Gy in 8 fractions) is recorded as more than 15 days; in series [5] (3 mg/kg i.p. on days 1, 3, 5, 7, alone, untreated 7 days), 9 days.
